Legend:
[1] = tested on: several mammalian cell types; details: energy-independent manner; cited from earlier work
[2] = tested on: mouse tongue tumors induced by 4-NQO; experiment: 4-NQO mouse model of oral carcinogenesis: gross tongue lesion multiplicity and severity grading; assay type: in vivo, mouse (C57BL/6)
Experimental: A mouse model of oral squamous cell carcinomas or oral cancers was developed by exposing the animals to the carcinogen 4-nitroquinoline 1-oxide (4-NQO) via drinking water.
(§1) Six-week old wild-type C57BL/6 female mice (purchased from the Jackson Laboratory) were used for this study. The mice were maintained on a normal chow (Lab-diet with constant nutrition, Lab-Diet Co, St. Louis, Mo.) and under controlled conditions with a 12 hour light/dark cycle. […] Mouse body weights and precancerous and cancerous lesions were monitored in the oral cavities at different times for up to 15 weeks, or until signs of sickness or weight loss. […]
(§2) Tissue dissection, lesion grade measurement, and pathological diagnosis. […] Gross lesions were identified and photographed, and visible cancerous lesions on the tongues were counted. The multiplicity of lesions (number of lesions per mouse) was assessed with a 10× magnification. The severity of gross lesions on the tongues was quantified by a grading system that included 0 (no lesion), 1 (mild lesion), 2 (intermediate lesion), 3 (severe lesion), and 4 (most severe lesion) in a double blinded manner. […]

[3] = tested on: mouse tongue tumors induced by 4-NQO; experiment: 4-NQO mouse model: histological diagnosis of squamous neoplasia on H&E stained tongue sections; assay type: in vivo, mouse (C57BL/6); details: 4-NQO 10 weeks, then peptide 2.5 mg/kg/day s.c. 2 days/week for 15 weeks; four mice per group; 75% in 4-NQO+saline; p=0.07
Experimental: as §1, with “cycle. The mice were randomly divided into an experimental group in which mice received drinking water that contained 100 μg/ml 4-nitroquinoline 1-oxide (4-NQO) (Sigma, St. Louis, Mo.) and a control group in which mice received drinking water that contained propylene glycol (vehicle for 4-NQO). The treatment lasted for 10 weeks after which the mice received regular drinking water.” for “cycle.”
as §2

PCNA = experiment: Immunohistochemistry of mouse tongue sections for PCNA; assay type: in vivo, mouse (C57BL/6); details: 4-NQO + peptide vs 4-NQO+saline; tongue regions with and without visible lesions; four mice per group
Experimental: as §1, with “cycle. The mice were randomly divided into an experimental group in which mice received drinking water that contained 100 μg/ml 4-nitroquinoline 1-oxide (4-NQO) (Sigma, St. Louis, Mo.) and a control group in which mice received drinking water that contained propylene glycol (vehicle for 4-NQO). The treatment lasted for 10 weeks after which the mice received regular drinking water.” for “cycle.”
(§3) Immunohistochemistry. […] The sections were incubated with secondary antibodies (1:200, anti-mouse IgG from the M.O.M kit for p16; ready to use anti-rabbit IgG from the Invitrogen SuperPicture kit for Cox-2; and ready to use anti-mouse IgG from the Dako Envision™ HRP (DAB+) kit for mouse PCNA). […] Four to five representative areas of each mouse tongue section were photographed and analyzed.

p16 = experiment: Immunohistochemistry of mouse tongue sections for p16; assay type: in vivo, mouse (C57BL/6); details: peptide injections after 4-NQO treatment vs 4-NQO+saline; four mice per group
Experimental: as §1, with “cycle. The mice were randomly divided into an experimental group in which mice received drinking water that contained 100 μg/ml 4-nitroquinoline 1-oxide (4-NQO) (Sigma, St. Louis, Mo.) and a control group in which mice received drinking water that contained propylene glycol (vehicle for 4-NQO). The treatment lasted for 10 weeks after which the mice received regular drinking water.” for “cycle.”
as §3

PTGS2 = experiment: Immunohistochemistry of mouse tongue sections for PTGS2 (Cox-2); assay type: in vivo, mouse (C57BL/6); details: 4-NQO + peptide vs 4-NQO+saline; four mice per group
Experimental: as §1, with “cycle. The mice were randomly divided into an experimental group in which mice received drinking water that contained 100 μg/ml 4-nitroquinoline 1-oxide (4-NQO) (Sigma, St. Louis, Mo.) and a control group in which mice received drinking water that contained propylene glycol (vehicle for 4-NQO). The treatment lasted for 10 weeks after which the mice received regular drinking water.” for “cycle.”
as §3

## 2′,6′-Dmt-D-Arg-Phe-Lys-NH2
[1]
  penetration of the plasma membrane: readily penetrates the plasma membrane

## D-Arg-2′,6′-Dmt-Lys-Phe-NH2
[2]; 4-NQO 100 μg/ml in drinking water 10 weeks, then peptide 2.5 mg/kg/day s.c. on 2 days each week for 15 weeks, 10 mice/group, p<0.05 vs 4-NQO+saline (6.5±2.9)
  average number of cancerous tongue lesions per mouse (multiplicity): 3.3±2.2
[2]; 4-NQO 10 weeks, then peptide 2.5 mg/kg/day s.c. 2 days/week for 15 weeks, grading 0-4, p<0.05 vs 4-NQO+saline (Fisher's exact test)
  percentage of less severe tongue lesions of grades 0-2: 100%
[3]
  percentage of mice that developed severe dysplasia, carcinoma in situ, and invasive carcinoma: 25%
PCNA
  PCNA positive cells in tongue epithelium: obvious lower numbers of PCNA positive cells
p16
  p16 protein levels in tongue epithelium: greatly limited the 4-NQO-induced decrease in p16 protein levels
PTGS2
  PTGS2 protein levels in tongues: greatly reduced levels in PTGS2 protein
